Reference: ChEMBL document CHEMBL1212712, “A pulse at the heart of targeted therapy” (Nat Chem Biol, 2009)

Columns and labels:
[1] = Cmax in chronic myeloid leukemia patient; assay type: ADME, organism-based; conditions: human, in vivo
[2] = Half life in chronic myeloid leukemia patient; assay type: ADME, organism-based; conditions: human, in vivo
[3] = Antiproliferative activity against human CML cells; assay type: functional, cell-based; conditions: Leukemia cell

Cmax [1]	half-life [2]	SMILES	IC50 [3]
200 nM	3 h	Cc1nc(Nc2ncc(C(=O)Nc3c(C)cccc3Cl)s2)cc(N2CCN(CCO)CC2)n1.O [DASATINIB]	1 nM
2000 nM	–	Cc1ccc(NC(=O)c2ccc(CN3CCN(C)CC3)cc2)cc1Nc1nccc(-c2cccnc2)n1 [IMATINIB]	350 nM
